Test results from ChEMBL document CHEMBL1145407, “Structure-activity relationships of alpha-ketooxazole inhibitors of fatty acid amide hydrolase” (J Med Chem, 2007).

Tests used:
[1] = target: T1, Fatty-acid amide hydrolase 1 (Rattus norvegicus, UniProt P97612); test: Inhibition of rat recombinant FAAH expressed in Escherichia coli
T1 sequence (P97612 whole entry): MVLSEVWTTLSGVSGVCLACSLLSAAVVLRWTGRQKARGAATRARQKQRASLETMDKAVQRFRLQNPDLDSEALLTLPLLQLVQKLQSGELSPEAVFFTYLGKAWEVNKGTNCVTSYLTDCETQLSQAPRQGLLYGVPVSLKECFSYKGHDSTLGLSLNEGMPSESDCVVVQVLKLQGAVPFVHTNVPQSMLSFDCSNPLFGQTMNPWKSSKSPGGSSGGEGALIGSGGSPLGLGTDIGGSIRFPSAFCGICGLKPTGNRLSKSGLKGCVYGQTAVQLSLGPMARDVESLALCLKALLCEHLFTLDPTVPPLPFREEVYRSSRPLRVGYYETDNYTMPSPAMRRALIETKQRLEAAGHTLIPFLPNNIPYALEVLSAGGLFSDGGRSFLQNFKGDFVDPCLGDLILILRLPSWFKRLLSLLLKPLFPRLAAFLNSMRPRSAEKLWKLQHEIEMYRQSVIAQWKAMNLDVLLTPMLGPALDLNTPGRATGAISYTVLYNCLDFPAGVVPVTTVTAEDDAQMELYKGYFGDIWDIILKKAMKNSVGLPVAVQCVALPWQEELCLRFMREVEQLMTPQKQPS

[2] = Selectivity for rat recombinant FAAH over KIAA1363
[3] = Selectivity for rat recombinant FAAH over TGH
[4] = target: T2, Fatty-acid amide hydrolase 1 (Homo sapiens, UniProt O00519); test: Inhibition of human FAAH expressed in COS-7 cells
T2 sequence (O00519 whole entry): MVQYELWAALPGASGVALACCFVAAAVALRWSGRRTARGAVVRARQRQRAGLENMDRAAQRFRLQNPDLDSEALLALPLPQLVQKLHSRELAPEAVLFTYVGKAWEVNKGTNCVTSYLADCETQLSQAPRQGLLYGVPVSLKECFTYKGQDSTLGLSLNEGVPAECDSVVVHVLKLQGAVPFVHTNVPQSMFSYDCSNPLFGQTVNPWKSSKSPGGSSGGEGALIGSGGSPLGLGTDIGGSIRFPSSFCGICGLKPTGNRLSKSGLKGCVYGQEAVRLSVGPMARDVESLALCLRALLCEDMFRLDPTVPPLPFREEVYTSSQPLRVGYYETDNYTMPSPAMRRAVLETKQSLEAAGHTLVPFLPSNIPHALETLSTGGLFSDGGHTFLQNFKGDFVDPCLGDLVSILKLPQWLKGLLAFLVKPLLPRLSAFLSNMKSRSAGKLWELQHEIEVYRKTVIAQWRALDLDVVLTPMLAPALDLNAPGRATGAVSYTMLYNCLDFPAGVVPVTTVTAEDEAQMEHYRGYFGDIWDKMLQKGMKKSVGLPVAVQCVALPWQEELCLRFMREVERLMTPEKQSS

Row | Ki [1] [nM] | Ratio IC50 [2] | Ratio IC50 [3] | Ki [4] [nM] | Selectivity ratio [2] | Compound
1 | 0.9 | > 14000 | 70 | 1.2 |  | O=C(CCCCCCc1cccc(Cl)c1Cl)c1ncc(-c2ccccn2)o1
2 | 6.7 | > 3300 | 1000 |  |  | CCCCCCc1ccc(CCCCCCC(=O)c2ncc(-c3ccccn3)o2)cc1
3 | 4 | > 10000 | 20 |  |  | O=C(CCCCCCc1ccc(C(F)(F)F)cc1)c1ncc(-c2ccccn2)o1
4 | 19 | > 2000 | 40 |  |  | CS(=O)(=O)c1ccc(CCCCCCC(=O)c2ncc(-c3ccccn3)o2)cc1
5 | 1 | > 5000 | 10 |  |  | O=C(CCCCCCc1cccc(C(F)(F)F)c1)c1ncc(-c2ccccn2)o1
6 | 1.9 | > 250000 | 25000 |  |  | COC(=O)c1cccc(CCCCCCC(=O)c2ncc(-c3ccccn3)o2)c1
7 | 3.3 | > 3300 | 170 |  |  | Cc1cccc(CCCCCCC(=O)c2ncc(-c3ccccn3)o2)c1
8 | 4.3 | > 5000 | 35 |  |  | O=C(CCCCCCc1cccs1)c1ncc(-c2ccccn2)o1
9 | 3.3 | > 3300 | 300 |  |  | CSc1ccccc1CCCCCCC(=O)c1ncc(-c2ccccn2)o1
10 | 11 | > 2500 | 0.5 |  |  | O=C(CCCCCCc1ccc2ccccc2c1)c1ncc(-c2ccccn2)o1
11 | 32 | > 5000 | 50 |  |  | O=C(CCCCCCc1cccnc1)c1ncc(-c2ccccn2)o1
12 | 37 | > 1000 | 30 |  |  | CS(=O)(=O)c1ccccc1CCCCCCC(=O)c1ncc(-c2ccccn2)o1
13 | 3 | > 25000 | 750 |  |  | Nc1ccc(CCCCCCC(=O)c2ncc(-c3ccccn3)o2)cc1
14 | 1.9 | > 5000 | 30 |  |  | O=C(CCCCCCc1ccccc1Cl)c1ncc(-c2ccccn2)o1
15 | 15 |  | 250 |  | > 1250 | CCCCCCc1cccc(CCCCCCC(=O)c2ncc(-c3ccccn3)o2)c1
16 | 2.5 | > 5000 | 40 |  |  | CSc1ccc(CCCCCCC(=O)c2ncc(-c3ccccn3)o2)cc1
17 | 6.2 |  | 250 |  | > 5000 | COc1ccc(CCCCCCC(=O)c2ncc(-c3ccccn3)o2)cc1
18 | 4.2 | > 10000 | 30 |  |  | CSc1cccc(CCCCCCC(=O)c2ncc(-c3ccccn3)o2)c1
19 | 4 | > 3300 | 230 |  |  | O=C(CCCCCCc1ccccc1C(F)(F)F)c1ncc(-c2ccccn2)o1
20 | 6.5 | > 200000 | 100000 |  |  | O=C(CCCCCCc1ccc([N+](=O)[O-])cc1)c1ncc(-c2ccccn2)o1
21 | 1.7 | > 3300 | 17 |  |  | O=C(CCCCCCc1ccccc1F)c1ncc(-c2ccccn2)o1
22 | 5.1 | > 3300 | 27 |  |  | O=C(CCCCCCc1ccsc1)c1ncc(-c2ccccn2)o1
23 | 1 | > 250000 | 25000 |  |  | COC(=O)c1ccccc1CCCCCCC(=O)c1ncc(-c2ccccn2)o1
24 | 2.2 | > 10000 | 100 |  |  | O=C(CCCCCCc1cccc(F)c1)c1ncc(-c2ccccn2)o1
25 | 3.2 | > 5000 | 50 |  |  | O=C(CCCCCCc1ccc(F)cc1)c1ncc(-c2ccccn2)o1
26 | 5.8 | > 10000 | 500 |  |  | COc1ccccc1CCCCCCC(=O)c1ncc(-c2ccccn2)o1
